{"source": "patent US8222404B2", "about": "“[1,2,4]Thiadiazin-3-yl acetic acid compound and methods of making the acetic acid compound” (Anadys Pharmaceuticals, Inc., priority 2008, dated 2012)", "note": "pEC50: −log10 of the molar value."}
{"system": "HCV Huh-luc/neo-ET replicon cells", "assay": "Luciferase-Based HCV Replicon Assay (EC50 (1b))", "assay_type": "cell-based", "details": "72 hours exposure, luciferase activity", "protocol": "(§1) Luciferase-Based HCV Replicon Assay Protocol (EC50 (1b))\n(§2) The cell culture component of the assay was performed essentially as described by Bartenschlager et al., Hepatology 2002, 35, 694-703, wherein exponentially growing HCV Huh-luc/neo-ET replicon cells were seeded at 6×10^3 cells/well in 96 well assay plate. 24 hours later the cells were treated with various concentrations of compound in triplicate. After 72 hours exposure to the compound, the luciferase activity in the wells was determined using Bright-Glo reagent (Promega, Madison, Wis.) with a luminometer (Wallac 1420 Multilabel HTS Counter Victor 2). The background control was replicon cells treated with 100 nM BILN-2061, an inhibitor of the HCV protease. % Inhibition was determined for each compound concentration in relation to the negative (no compound) control to calculate the EC50 (1b)."}
{"smiles": "CS(=O)(=O)NCc1csc2c1S(=O)(=O)N=C(C1=C(O)C3C4CCC(C5CC54)C3N(Cc3ccc(F)cc3)C1=O)N2", "note": "(racemic) [Example 23, (rac-di-exo)-N-{3-[3-(4-Fluoro-benzyl)-6-hydroxy-4-oxo-3-aza-tetracyclo[6.3.2.0^2,7.0^9,11]tridec-5-en-5-yl]-1,1-dioxo-1,4-dihydro-1λ^6-thieno[2,3-e][1,2,4]thiadiazin-7-ylmethyl}-methanesulfonamide]", "pEC50": "≥ 8.30"}
{"system": "HCV Huh-luc/neo-ET replicon cells", "assay": "Luciferase-Based HCV Replicon Assay (EC50 (1b))", "assay_type": "cell-based", "details": "Hepatitis C virus, 72 hours exposure, luciferase activity", "protocol": "as §1, §2"}
{"smiles": "CS(=O)(=O)NCc1csc2c1S(=O)(=O)N=C(C1=C(O)C3CCCC3N(Cc3ccc(F)cc3)C1=O)N2", "note": "(racemic) [Example 2, (rac-cis)-N-{3-[1-(4-Fluoro-benzyl)-4-hydroxy-2-oxo-2,4a,5,6,7,7a-hexahydro-1H-[1]pyrindin-3-yl]-1,1-dioxo-1,4-dihydro-1λ^6-thieno[2,3-e][1,2,4]thiadiazin-7-ylmethyl}-methanesulfonamide]", "pEC50": "7.70 to 8.30"}
{"smiles": "CS(=O)(=O)NCc1csc2c1S(=O)(=O)N=C(C1=C(O)CC(C3CC3)N(Cc3ccc(F)cc3)C1=O)N2", "note": "(racemic) [Example 4, rac-N-{3-[6-Cyclopropyl-1-(4-fluoro-benzyl)-4-hydroxy-2-oxo-1,2,5,6-tetrahydro-pyridin-3-yl]-1,1-dioxo-1,4-dihydro-1λ^6-thieno[2,3-e][1,2,4]thiadiazin-7-ylmethyl}-methanesulfonamide]", "pEC50": "6.00 to 7.00"}
{"smiles": "CCCC1CC(O)=C(C2=NS(=O)(=O)c3c(CNS(C)(=O)=O)csc3N2)C(=O)N1Cc1ccc(F)cc1", "note": "(racemic) [Example 5, rac-N-{3-[1-(4-Fluoro-benzyl)-4-hydroxy-2-oxo-6-propyl-1,2,5,6-tetrahydro-pyridin-3-yl]-1,1-dioxo-1,4-dihydro-1λ^6-thieno[2,3-e][1,2,4]thiadiazin-7-ylmethyl}-methanesulfonamide]", "pEC50": "6.00 to 7.00"}
{"smiles": "CS(=O)(=O)NCc1csc2c1S(=O)(=O)N=C(C1=C(O)CC(C3CCC3)N(Cc3ccc(F)cc3)C1=O)N2", "note": "(racemic) [Example 6, rac-N-{3-[6-Cyclobutyl-1-(4-fluoro-benzyl)-4-hydroxy-2-oxo-1,2,5,6-tetrahydro-pyridin-3-yl]-1,1-dioxo-1,4-dihydro-1λ^6-thieno[2,3-e][1,2,4]thiadiazin-7-ylmethyl}-methanesulfonamide]", "pEC50": "6.00 to 7.00"}
{"smiles": "CC(C)CC1CC(O)=C(C2=NS(=O)(=O)c3c(CNS(C)(=O)=O)csc3N2)C(=O)N1Cc1ccc(F)cc1", "note": "(racemic) [Example 7, rac-N-{3-[1-(4-Fluoro-benzyl)-4-hydroxy-6-isobutyl-2-oxo-1,2,5,6-tetrahydro-pyridin-3-yl]-1,1-dioxo-1,4-dihydro-1λ^6-thieno[2,3-e][1,2,4]thiadiazin-7-ylmethyl}-methanesulfonamide]", "pEC50": "6.00 to 7.00"}
{"smiles": "CC(C)C1CC(O)=C(C2=NS(=O)(=O)c3c(CNS(C)(=O)=O)csc3N2)C(=O)N1Cc1ccc(F)cc1", "note": "(racemic) [Example 8, rac-N-{3-[1-(4-Fluoro-benzyl)-4-hydroxy-6-isopropyl-2-oxo-1,2,5,6-tetrahydro-pyridin-3-yl]-1,1-dioxo-1,4-dihydro-1λ^6-thieno[2,3-e][1,2,4]thiadiazin-7-ylmethyl}-methanesulfonamide]", "pEC50": "7.00 to 7.70"}
{"smiles": "CS(=O)(=O)NCc1csc2c1S(=O)(=O)N=C(C1=C(O)CC(C3CCCC3)N(Cc3ccc(F)cc3)C1=O)N2", "note": "(racemic) [Example 9, rac-N-{3-[6-Cyclopentyl-1-(4-fluoro-benzyl)-4-hydroxy-2-oxo-1,2,5,6-tetrahydro-pyridin-3-yl]-1,1-dioxo-1,4-dihydro-1λ^6-thieno[2,3-e][1,2,4]thiadiazin-7-ylmethyl}-methanesulfonamide]", "pEC50": "6.00 to 7.00"}
{"smiles": "CC1CN(Cc2ccc(F)cc2)C(=O)C(C2=NS(=O)(=O)c3c(CNS(C)(=O)=O)csc3N2)=C1O", "note": "(racemic) [Example 10, rac-N-{3-[1-(4-Fluoro-benzyl)-4-hydroxy-5-methyl-2-oxo-1,2,5,6-tetrahydro-pyridin-3-yl]-1,1-dioxo-1,4-dihydro-1λ^6-thieno[2,3-e][1,2,4]thiadiazin-7-ylmethyl}-methanesulfonamide]", "pEC50": "6.00 to 7.00"}
{"smiles": "CS(=O)(=O)NCc1csc2c1S(=O)(=O)N=C(C1=C(O)C(Cc3ccccc3)CN(Cc3ccc(F)cc3)C1=O)N2", "note": "(racemic) [Example 12, rac-N-{3-[5-Benzyl-1-(4-fluoro-benzyl)-4-hydroxy-2-oxo-1,2,5,6-tetrahydro-pyridin-3-yl]-1,1-dioxo-1,4-dihydro-1λ^6-thieno[2,3-e][1,2,4]thiadiazin-7-ylmethyl}-methanesulfonamide]", "pEC50": "< 6.00"}
{"smiles": "CC(C)C1CN(Cc2ccc(F)cc2)C(=O)C(C2=NS(=O)(=O)c3c(CNS(C)(=O)=O)csc3N2)=C1O", "note": "(racemic) [Example 13, rac-N-{3-[1-(4-Fluoro-benzyl)-4-hydroxy-5-isopropyl-2-oxo-1,2,5,6-tetrahydro-pyridin-3-yl]-1,1-dioxo-1,4-dihydro-1λ^6-thieno[2,3-e][1,2,4]thiadiazin-7-ylmethyl}-methanesulfonamide]", "pEC50": "6.00 to 7.00"}
{"smiles": "CC(C)(C)C1CN(Cc2ccc(F)cc2)C(=O)C(C2=NS(=O)(=O)c3c(CNS(C)(=O)=O)csc3N2)=C1O", "note": "(racemic) [Example 14, rac-N-{3-[5-tert-Butyl-1-(4-fluoro-benzyl)-4-hydroxy-2-oxo-1,2,5,6-tetrahydro-pyridin-3-yl]-1,1-dioxo-1,4-dihydro-1λ^6-thieno[2,3-e][1,2,4]thiadiazin-7-ylmethyl}-methanesulfonamide]", "pEC50": "7.70 to 8.30"}
{"smiles": "CCCC1CN(Cc2ccc(F)cc2)C(=O)C(C2=NS(=O)(=O)c3c(CNS(C)(=O)=O)csc3N2)=C1O", "note": "(racemic) [Example 15, rac-N-{3-[1-(4-Fluoro-benzyl)-4-hydroxy-2-oxo-5-propyl-1,2,5,6-tetrahydro-pyridin-3-yl]-1,1-dioxo-1,4-dihydro-1λ^6-thieno[2,3-e][1,2,4]thiadiazin-7-ylmethyl}-methanesulfonamide]", "pEC50": "6.00 to 7.00"}
{"smiles": "CS(=O)(=O)NCc1csc2c1S(=O)(=O)N=C(C1=C(O)C(C3CCCC3)CN(Cc3ccc(F)cc3)C1=O)N2", "note": "(racemic) [Example 16, rac-N-{3-[5-Cyclopentyl-1-(4-fluoro-benzyl)-4-hydroxy-2-oxo-1,2,5,6-tetrahydro-pyridin-3-yl]-1,1-dioxo-1,4-dihydro-1λ^6-thieno[2,3-e][1,2,4]thiadiazin-7-ylmethyl}-methanesulfonamide]", "pEC50": "7.00 to 7.70"}
{"smiles": "CC(C)CC1CN(Cc2ccc(F)cc2)C(=O)C(C2=NS(=O)(=O)c3c(CNS(C)(=O)=O)csc3N2)=C1O", "note": "(racemic) [Example 17, rac-N-{3-[1-(4-Fluoro-benzyl)-4-hydroxy-5-isobutyl-2-oxo-1,2,5,6-tetrahydro-pyridin-3-yl]-1,1-dioxo-1,4-dihydro-1λ^6-thieno[2,3-e][1,2,4]thiadiazin-7-ylmethyl}-methanesulfonamide]", "pEC50": "6.00 to 7.00"}
{"smiles": "CCC1CN(Cc2ccc(F)cc2)C(=O)C(C2=NS(=O)(=O)c3c(CNS(C)(=O)=O)csc3N2)=C1O", "note": "(racemic) [Example 18, rac-N-{3-[5-Ethyl-1-(4-fluoro-benzyl)-4-hydroxy-2-oxo-1,2,5,6-tetrahydro-pyridin-3-yl]-1,1-dioxo-1,4-dihydro-1λ^6-thieno[2,3-e][1,2,4]thiadiazin-7-ylmethyl}-methanesulfonamide]", "pEC50": "6.00 to 7.00"}
{"smiles": "CC(C)CCC1(C)CN(C2CC2)C(=O)C(C2=NS(=O)(=O)c3c(CNS(C)(=O)=O)csc3N2)=C1O", "note": "(racemic) [Example 19, rac-N-{3-[1-Cyclopropyl-4-hydroxy-5-methyl-5-(3-methyl-butyl)-2-oxo-1,2,5,6-tetrahydro-pyridin-3-yl]-1,1-dioxo-1,4-dihydro-1λ^6-thieno[2,3-e][1,2,4]thiadiazin-7-ylmethyl}-methanesulfonamide]", "pEC50": "6.00 to 7.00"}
{"smiles": "CC(C)CCC1(C)CN(C2CCC2)C(=O)C(C2=NS(=O)(=O)c3c(CNS(C)(=O)=O)csc3N2)=C1O", "note": "(racemic) [Example 20, rac-N-{3-[1-Cyclobutyl-4-hydroxy-5-methyl-5-(3-methyl-butyl)-2-oxo-1,2,5,6-tetrahydro-pyridin-3-yl]-1,1-dioxo-1,4-dihydro-1λ^6-thieno[2,3-e][1,2,4]thiadiazin-7-ylmethyl {-methanesulfonamide]", "pEC50": "6.00 to 7.00"}
{"smiles": "CC(C)CCC1(C)CN(C2CCCC2)C(=O)C(C2=NS(=O)(=O)c3c(CNS(C)(=O)=O)csc3N2)=C1O", "note": "(racemic) [Example 21, rac-N-{3-[1-Cyclopentyl-4-hydroxy-5-methyl-5-(3-methyl-butyl)-2-oxo-1,2,5,6-tetrahydro-pyridin-3-yl]-1,1-dioxo-1,4-dihydro-1λ^6-thieno[2,3-e][1,2,4]thiadiazin-7-ylmethyl}-methanesulfonamide]", "pEC50": "6.00 to 7.00"}
{"smiles": "CS(=O)(=O)NCc1csc2c1S(=O)(=O)N=C(C1=C(O)C3C4CCC(C5CC54)C3N(Cc3ccc(F)cc3)C1=O)N2", "note": "(racemic) [Example 22, (rac-di-endo)-N-{3-[3-(4-Fluoro-benzyl)-6-hydroxy-4-oxo-3-aza-tetracyclo[6.3.2.0^2,7.0^9,11]tridec-5-en-5-yl]-1,1-dioxo-1,4-dihydro-1λ^6-thieno[2,3-e][1,2,4]thiadiazin-7-ylmethyl}-methanesulfonamide]", "pEC50": "≥ 8.30"}
{"smiles": "CC(C)(C)CCN1C(=O)C(C2=NS(=O)(=O)c3c(CNS(C)(=O)=O)csc3N2)=C(O)C2C3CCC(C4CC43)C21", "note": "(racemic) [Example 24, (rac-di-endo)-N-{3-[3-(3,3-Dimethyl-butyl)-6-hydroxy-4-oxo-3-aza-tetracyclo[6.3.2.0^2,7.0^9,11]tridec-5-en-5-yl]-1,1-dioxo-1,4-dihydro-1λ^6-thieno[2,3-e][1,2,4]thiadiazin-7-ylmethyl}-methanesulfonamide]", "pEC50": "≥ 8.30"}
